Holding throughout (type): biochemical
The target in assay [1] is T1, human FAK (Homo sapiens, UniProt Q05397).
T1 construct: The complete cDNA of human FAK; made in house; host or cells: baculovirus expression system (vector pFastBac HTc)
Briefly: FAK autophosphorylation inhibition, time resolved fluorescence (HTRF) assay. Particulars: 10 μM (values without asterisk); for inhibition at 10 µM: read-out: FAK % inhib at 10 μM. As to the method: The inhibitory activity of the compounds on FAK is determined by measuring the inhibition of the autophosphorylation of the enzyme using a time resolved fluorescence (HTRF) assay.
The complete cDNA of human FAK, the N-terminal end of which was labeled with histidine, was cloned into a baculovirus expression vector pFastBac HTc. The protein was expressed and purified to approximately 70% homogeneity.
The kinase activity is determined by incubating the enzyme (6.6 μg/ml) with various concentrations of test compound in a 50 mM Hepes buffer, pH=7.2, containing 10 mM MgCl2, 100 μM Na3VO4 and 15 μM d'ATP for 1 hour at 37° C. The enzyme reaction is stopped by adding Hepes buffer, pH=7.0, containing […], 133 mM EDTA and 0.1% BSA, and the labeling is carried out, over 1 to 2 hours at ambient temperature, by adding to this buffer an anti-Histidine antibody labeled with XL665 and a monoclonal antibody phosphospecific for tyrosine, conjugated to europium cryptate (Eu-K). The characteristics of the two fluorophores are available in G. Mathis et al., Anticancer Research, 1997, 17, pages 3011-3014. The transfer of energy from the excited europium cryptate to the XL665 acceptor is proportional to the degree of autophosphorylation of FAK. The long-lived signal specific for XL-665 is measured in a Packard Discovery plate counter. All the assays are carried out in duplicate and the mean of the two assays is calculated. The inhibition of the FAK autophosphorylation activity with compounds of the invention is expressed as percentage inhibition compared to a control whose activity is measured in the absence of test compound. The [signal at 665 nm/signal at 620 nm] ratio is used for the calculation of the % inhibition.
In general terms: In TR-FRET formats the signal depends on donor and acceptor labels being close together.

In assay [2] the target is T2, human KDR enzyme (Homo sapiens, UniProt P35968).
T2 construct: The cytoplasmic domain of the human KDR enzyme; GST; made in house; host or cells: SF21 insect cells (baculovirus)
T2 sequence (P35968 786-1356 limits assumed): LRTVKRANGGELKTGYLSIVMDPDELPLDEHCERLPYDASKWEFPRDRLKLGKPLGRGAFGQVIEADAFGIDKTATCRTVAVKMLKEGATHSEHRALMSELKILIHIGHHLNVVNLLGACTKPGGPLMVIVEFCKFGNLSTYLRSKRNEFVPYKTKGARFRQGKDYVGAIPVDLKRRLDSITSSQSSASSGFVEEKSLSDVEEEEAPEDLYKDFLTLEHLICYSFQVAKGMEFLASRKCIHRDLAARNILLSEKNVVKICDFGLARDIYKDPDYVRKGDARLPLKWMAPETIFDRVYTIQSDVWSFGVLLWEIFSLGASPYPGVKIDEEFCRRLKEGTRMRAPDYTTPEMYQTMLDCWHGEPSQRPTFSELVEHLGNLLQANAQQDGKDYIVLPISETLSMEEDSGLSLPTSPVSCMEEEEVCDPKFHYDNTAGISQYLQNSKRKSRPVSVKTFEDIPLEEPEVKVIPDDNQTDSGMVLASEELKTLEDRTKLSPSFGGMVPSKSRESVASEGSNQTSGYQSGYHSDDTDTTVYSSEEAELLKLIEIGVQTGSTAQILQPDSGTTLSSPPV
Description: KDR substrate (PLCγ) phosphorylation, scintillation assay. The note with it: 10 μM; for inhibition at 10 µM: read-out: KDR % inhib at 10 μM. As to the method:
The inhibitory effect of the compounds is determined in an assay of substrate phosphorylation by the KDR enzyme in vitro using a scintillation technique (96-well plate, NEN).
The cytoplasmic domain of the human KDR enzyme was cloned in the form of a GST fusion into the baculovirus expression vector pFastBac. The protein was expressed in SF21 cells and purified to approximately 60% homogeneity.
The KDR kinase activity is measured in 20 mM MOPS, 10 mM MgCl2, 10 mM MnCl2, 1 mM DTT, 2.5 mM EGTA, 10 mM β-glycerophosphate, pH=7.2, in the presence of 10 mM MgCl2, 100 μM Na3VO4, 1 mM NaF. 10 μl of the compound are added to 70 μl of kinase buffer containing 100 ng of KDR enzyme at 4° C. The reaction is triggered by adding 20 μl of solution containing 2 μg of substrate (SH2-SH3 fragment of PLCγ expressed in the form of a GST fusion protein), 2 μCi γ^33P[ATP] and 2 μM cold ATP. After incubation for 1 hour at 37° C., the reaction is stopped by adding 1 volume (100 μl) of 200 mM EDTA. The incubation buffer is removed and the wells are washed three times with 300 μl of PBS. The radioactivity is measured in each well using Top Count NXT radioactivity counter (Packard).
The background noise is determined by measuring the radioactivity in four different wells containing the radioactive ATP and the substrate alone.
A control for total activity is measured in four different wells containing all the reagents (γ^33P-[ATP], KDR and PLCγ substrate) but in the absence of compound.
The inhibition of the KDR activity with the compound of the invention is expressed as percentage inhibition of the control activity determined in the absence of compound.
The compound SU5614 (Calbiochem) (1 μM) is included in each plate as an inhibition control.

Assay [3] concerns the target T3, Aurora2 kinase (Homo sapiens, UniProt O14965).
T3 construct: A complete recombinant Aurora2 enzyme; His tag (N); made in house; host or cells: E. coli
T3 sequence (O14965 1-403): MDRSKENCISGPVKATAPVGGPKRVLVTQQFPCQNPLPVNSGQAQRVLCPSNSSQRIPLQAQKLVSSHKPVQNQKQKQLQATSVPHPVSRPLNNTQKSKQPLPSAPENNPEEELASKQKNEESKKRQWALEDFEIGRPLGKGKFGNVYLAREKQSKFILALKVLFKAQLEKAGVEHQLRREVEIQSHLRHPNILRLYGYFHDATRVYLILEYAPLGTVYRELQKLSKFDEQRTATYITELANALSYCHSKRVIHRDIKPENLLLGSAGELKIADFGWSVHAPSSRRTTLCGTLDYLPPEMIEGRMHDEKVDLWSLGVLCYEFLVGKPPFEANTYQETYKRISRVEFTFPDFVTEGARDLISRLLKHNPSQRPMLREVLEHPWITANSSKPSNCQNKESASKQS
Description: Aurora2 kinase radioactivity scintillation assay using nickel chelate (NuMA substrate). The note with it: 10 μM; for inhibition at 10 µM: read-out: Aurora2 % inhib at 10 μM. As to the method:
The inhibitory effect of compounds with respect to the Aurora2 kinase is determined with a radioactivity scintillation assay using nickel chelate.
A complete recombinant Aurora2 enzyme, the N-terminal end of which was labeled with histidine, was expressed in E. coli and purified to a quality close to homogeneity.
The C-terminal fragment (Q1687-H2101) of a NuMA (Nuclear protein that associates with the Mitotic Apparatus) expressed in E. coli, and the N-terminal end of which was labeled with histidine, was purified by nickel chelate chromatography and used as substrate in the Aurora2 kinase assay. In order to determine the kinase activity, the NuMA substrate is equilibrated by chromatography on a Pharmacia PD10 column, in a buffer (50 mM Tris HCl, pH7.5, 50 mM NaCl, 10 mM MgCl2) to which 10% (v/v) of glycerol and 0.05% (w/v) of NP40 have been added.
The kinase acivitity of Aurora2 is measured by scintillation with nickel chelate (New England Nuclear, model SMP107). Each well contains 100 μl of the following solution: 0.02 μM of Aurora2; 0.5 μM of NuMA substrate; 1 μM of ATP to which 0.5 μCi of ATP-[^33P] has been added. The solutions are incubated for 30 minutes at 37° C. The assay buffer is then removed and the wells are rinsed twice with 300 μl of kinase buffer. The radioactivity is measured in each well using a Packard Model Top Count NXT device.
The background noise is deduced from the measurement of radioactivity by measuring, in duplicate, in wells containing the radioactive ATP alone containing buffered kinase treated in the same way as the other samples.
The activity of the control is determined by measuring, in duplicate, the radioactivity in the complete assay mixture (ATP, Aurora2 and the NuMA substrate) in the absence of test compound.
The inhibition of the Aurora2 with a compound of the invention is expressed as percentage inhibition of the control activity in the absence of test compound. Staurosporine is added to each plate as an inhibition control.

T1 sequence (Q05397 whole entry): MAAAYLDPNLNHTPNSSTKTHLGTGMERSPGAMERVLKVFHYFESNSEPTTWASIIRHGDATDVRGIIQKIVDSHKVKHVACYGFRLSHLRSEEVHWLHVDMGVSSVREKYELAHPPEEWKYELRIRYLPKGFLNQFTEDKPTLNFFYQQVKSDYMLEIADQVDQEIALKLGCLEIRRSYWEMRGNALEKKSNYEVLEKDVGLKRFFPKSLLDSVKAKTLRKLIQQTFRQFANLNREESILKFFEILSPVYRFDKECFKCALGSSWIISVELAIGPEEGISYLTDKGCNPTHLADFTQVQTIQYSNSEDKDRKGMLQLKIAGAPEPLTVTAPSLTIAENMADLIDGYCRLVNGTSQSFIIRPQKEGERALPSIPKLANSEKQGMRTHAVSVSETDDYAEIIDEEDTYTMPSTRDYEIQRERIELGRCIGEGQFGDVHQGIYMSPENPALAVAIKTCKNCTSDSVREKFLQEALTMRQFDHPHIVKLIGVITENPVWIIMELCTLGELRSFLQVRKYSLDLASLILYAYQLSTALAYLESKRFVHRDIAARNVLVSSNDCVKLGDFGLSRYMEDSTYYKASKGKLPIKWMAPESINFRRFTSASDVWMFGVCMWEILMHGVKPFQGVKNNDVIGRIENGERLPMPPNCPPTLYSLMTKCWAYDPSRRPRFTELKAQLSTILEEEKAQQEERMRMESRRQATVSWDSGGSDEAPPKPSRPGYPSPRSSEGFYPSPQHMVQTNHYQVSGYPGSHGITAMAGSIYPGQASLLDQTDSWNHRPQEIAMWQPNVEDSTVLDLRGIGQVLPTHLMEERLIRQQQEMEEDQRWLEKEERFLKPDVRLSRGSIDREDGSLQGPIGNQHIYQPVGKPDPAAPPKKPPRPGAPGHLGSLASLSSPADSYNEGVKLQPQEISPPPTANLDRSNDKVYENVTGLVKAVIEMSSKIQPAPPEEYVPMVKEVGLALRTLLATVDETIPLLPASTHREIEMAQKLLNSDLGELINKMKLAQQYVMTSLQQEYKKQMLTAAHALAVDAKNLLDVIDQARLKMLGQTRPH

Consider `CC(=O)Nc1ccc(S(=O)(=O)Nc2ccc3[nH]nc(-c4ccccc4)c3c2)cc1` [Example 118, N-[4-(3-Phenyl-1H-indazol-5-ylsulfamoyl)phenyl]acetamide], for which the “FAK % inhib at 10 μM” value in assay [1] (10 µM) turned out to be 8%. Further, the “KDR % inhib at 10 μM” value in assay [2] was determined as 53%. The “Aurora2 % inhib at 10 μM” value in assay [3] was 52%.

With `CS(=O)(=O)c1ccccc1S(=O)(=O)Nc1ccc2[nH]nc(-c3cccc4cccnc34)c2c1` [Example 67, 2-Methylsulfonyl-N-(3-quinolin-8-yl-1H-indazol-5-yl)benzenesulfonamide], the inhibition at 10 µM in assay [1] was determined as 79%; in assay [2], 28%; in assay [3], 90%.

`N#Cc1ccc(S(=O)(=O)Nc2ccc3[nH]nc(-c4ccccc4)c3c2)cc1` [Example 143, 4-Cyano-N-(3-phenyl-1H-indazol-5-yl)-benzenesulfonamide]: the inhibition at 10 µM came to 23% in assay [1], 87% in assay [2] and 64% in assay [3].

Regarding `COc1ccc(Cl)cc1-c1n[nH]c2ccc(NS(=O)(=O)c3ccccc3S(C)(=O)=O)cc12` [Example 215, N-[3-(5-Chloro-2-methoxy-phenyl)-1H-indazol-5-yl]-2-methanesulfonyl-benzenesulfonamide], the figures for the inhibition at 10 µM in assay [1], in assay [2] and in assay [3] were 97%, 39% and 86%, respectively.

Consider `COc1ccc(S(=O)(=O)Nc2ccc3[nH]nc(-c4ccccc4)c3c2)cc1` [Example 120, 4-Methoxy-N-(3-phenyl-1H-indazol-5-yl)-benzenesulfonamide], for which the inhibition at 10 µM in assay [1] came to 36%; in assay [2] it was 69%; in assay [3], 52%.

Regarding `CS(=O)(=O)Nc1n[nH]c2ccc(NS(=O)(=O)c3cccc(F)c3)cc12` [Example 27, 3-Fluoro-N-(3-methylsulfonylamino-1H-indazol-5-yl)benzenesulfonamide], the inhibition at 10 µM came out at 6% in assay [1], 13% in assay [2] and 76% in assay [3].

On to `O=[N+]([O-])c1ccccc1CS(=O)(=O)Nc1ccc2[nH]nc(-c3ccccc3)c2c1` [Example 151, C-(2-Nitrophenyl)-N-(3-phenyl-1H-indazol-5-yl)-methanesulfonamide], for which the inhibition at 10 µM is 33% in assay [1], 63% in assay [2] and 84% in assay [3].

`O=S(=O)(Nc1ccc2[nH]nc(-c3ccccc3)c2c1)c1ccc(OC(F)(F)F)cc1` [Example 160, 4-Trifluoromethoxy-N-(3-phenyl-1H-indazol-5-yl)benzenesulfonamide]: the inhibition at 10 µM worked out at 3% in assay [1], 51% in assay [2] and 26% in assay [3].

In the case of `Cc1ccc(S(=O)(=O)Nc2ccc3[nH]nc(-c4ccccc4)c3c2)cc1` [Example 122, 4-Methyl-N-(3-phenyl-1H-indazol-5-yl)-benzenesulfonamide], the inhibition at 10 µM in assay [1] is 23%; in assay [2], 72%; in assay [3], 65%.

Consider `O=S(=O)(Nc1ccc2[nH]nc(-c3ccccc3)c2c1)c1cccc(-c2ccccc2)c1` [Example 157, N-(3-Phenyl-1H-indazol-5-yl)-biphenyl-3-sulfonamide], for which the inhibition at 10 µM in assay [1] stood at 0%; in assay [2] it was 63%; in assay [3] it was 38%.

As to `O=S(=O)(/C=C/c1ccccc1)Nc1ccc2[nH]nc(-c3ccccc3)c2c1` [Example 126, (E)-2-Phenyl-N-(3-phenyl-1H-indazol-5-yl)-ethylenesulfonamide], the inhibition at 10 µM came out at 7% in assay [1], 58% in assay [2] and 50% in assay [3].

Consider `CS(=O)(=O)c1ccccc1S(=O)(=O)Nc1ccc2[nH]nc(-c3cccc(C(=O)O)c3)c2c1` [Example 56, 3-[5-(2-Methylsulfonylbenzenesulfonamino)-1H-indazol-3-yl]benzoic acid], for which the inhibition at 10 µM in assay [1] worked out at 81%; in assay [2], 82%; in assay [3], 87%.

Consider `Cc1c(S(=O)(=O)Nc2ccc3[nH]nc(-c4ccccc4)c3c2)sc2ccc(Cl)cc12` [Example 153, N-(3-Phenyl-1H-indazol-5-yl)-(5-chloro-3-methyl-benzo[b]thiophene)-2-sulfonamide], for which the inhibition at 10 µM was found to be 0% in assay [1], 24% in assay [2] and 25% in assay [3].

On to `O=S(=O)(Nc1ccc2[nH]nc(-c3ccccc3)c2c1)c1ccc(Br)cc1` [Example 116, 4-Bromo-N-(3-phenyl-1H-indazol-5-yl)-benzenesulfonamide], for which the inhibition at 10 µM is 20% in assay [1], 81% in assay [2] and 69% in assay [3].

For `O=S(=O)(Nc1ccc2[nH]nc(-c3cc4ccccc4[nH]3)c2c1)c1cccs1` [Example 87, {N-[3-(1H-indol-2-yl)-1H-indazol-5-yl]}thiophene-2-sulfonamide], the values for the inhibition at 10 µM in assay [1], in assay [2] and in assay [3] were 91%, 100% and 100%, respectively.

For `CC(C)(C)c1ccc(S(=O)(=O)Nc2ccc3[nH]nc(-c4ccccc4)c3c2)cc1` [Example 121, 4-tert-Butyl-N-(3-phenyl-1H-indazol-5-yl)-benzenesulfonamide], the inhibition at 10 µM turned out to be 5% in assay [1], 39% in assay [2] and 27% in assay [3].

For the origin of these results see patent US6858638B2, “Substituted indazoles, compositions containing them, method of production and use” (Aventis Pharma S.A., priority 2002, dated 2005).
